For assay [1], the system named is D. vulgaris (ATCC 7757) SRB biofilm. Kind of assay: Prevention of SRB biofilm establishment on carbon steel coupons (Example 1): sessile cell count and SEM. Format: cell-based, Desulfovibrio vulgaris. The note with it: alone; for Sessile SRB cells on coupon surface (SEM), biofilm prevention: 7-day coupons.
Method: D. vulgaris (ATCC 7757), a laboratory SRB strain, was cultured in ATCC 1249 medium. Quarter strength medium with only four key ingredients, i.e., MgSO4, sodium lactate, Fe(NH4)2(SO4)2 and yeast extract at concentrations ¼ of those in the full ATCC 1249 medium was also used to simulate a less nutritious environment. […] SRB culture media were sterilized in an autoclave and then deoxygenated using N2 (filter sterilized) sparging. SRB cells were enumerated using an SRB test kit (Sani-Check® Product #100, Biosan Laboratories, Warren, Mich., USA). […] Below this cell count, it is hard to catch an individual cell under the light microscope. The Most Probable Number (MPN) enumeration method is a standard method to estimate very low cell counts. MPN succeeds by growing the cells first and correlating the cell counts with the appearance of black color (due to FeS produced by SRB). […] The SRB test kit used in this example is equivalent to an MPN method using a solid medium instead of a liquid medium.
Anaerobic vials used in this example were 125 ml (Catalog No. 223748, Wheaton Industries Inc., 143 Millville, N.J., USA), each filled with 100 ml of culture medium. A glovebox filled with filter-sterilized N2 provided an anaerobic environment. To mitigate any possible oxygen leaks, 100 ppm L-cysteine (Fisher Scientific, Pittsburgh, Pa., USA), an oxygen scavenger, was added to the culture media. Thin disk shaped C1018 carbon steel coupons with a top disk surface area of 1.12 cm^2 were polished with 200, 400, and 600 grit abrasive papers progressively. Only the top surface of each coupon was exposed to the culture medium. The rest of the surfaces were coated with inert Teflon. After polishing, the coupons were weighed. The coupons were cleaned using isopropanol and then dried under UV light for 15 minutes.
Three duplicate coupons and 1 ml of a 3-day old SRB seed culture were added to each anaerobic vial. The initial SRB cell concentration in each vial immediately after inoculation was approximately 10^6 cells/ml. After adding treatment chemical(s) following inoculation, the vials were sealed and then incubated at 37° C. After 7 days of incubation, the biofilm on a coupon surface was observed under SEM. The procedure to prepare a coupon for SEM observation of a biofilm was described by Wen et al., Inter. […] Au coating of the biofilm covered coupon was necessary for SEM because the biofilm was not conductive. An SEM image was taken for the spot with most sessile cells after screening three duplicate coupons. A special control coupon was inserted in a vial containing the culture medium without biocide treatment and incubated without inoculation. This abiotic control would indicate yellow rust if an oxygen leak occurred. Its surface was also scanned for sessile cells under SEM for possible microbial contamination. Care was also taken to identify sessile cells that looked different from D. vulgaris during biofilm observation under SEM, which would indicate microbial contamination.
To obtain the average sessile cell density on a coupon surface, the sessile cells were first scraped off from the surface of a duplicate coupon onto a brush-like dipstick of the SRB test kit handled with sterile tweezers. The dipstick was wetted with deoxygenated water before scraping. Most of the sessile cells were collected by the dipstick. […]
The subject of assay [2] is mature D. vulgaris (ATCC 7757) SRB biofilm. Kind of assay: Removal of established SRB biofilm, 1-h and 3-h simulated slug treatment (Example 2). Particulars: alone. Format: cell-based, Desulfovibrio vulgaris. The protocol: The full-strength ATCC 1249 medium was used to grow SRB biofilms on coupon surfaces first. […] In the anaerobic chamber, the coupons were taken out and rinsed with phosphate buffered saline (PBS) buffer to remove loose planktonic cells. The coupons were then placed into petri dishes containing treatment chemicals in a water solution. Some coupons were treated for 1 h and some for 3 h. This simulated slug treatment with a contact time lasting 1 and 3 h, respectively, as in the situation when a biocide slug flows inside a pipeline. Flow effect was not considered here. Exposing SRB cells on a coupon from the ATCC 1249 medium to a water solution lacking salt ions might cause osmotic shock that could interfere with the biocide efficacy evaluation. Instead of using PBS buffer commonly used in cell cultures, two salts in the original medium, MgSO4 and (NH4)2Fe(SO4)2, were added to the 1 and 3-h treatment solutions at ¼ of their corresponding concentrations in the full-strength ATCC 1249 medium. The treated coupons were then removed and examined for sessile SRB cells. The diluted medium was used here to simulate the residual nutrients retained by the local biofilms when the bulk pipeline or tank fluid is displaced by the biocide solution during a field treatment.
(§1) The procedure to prepare a coupon for SEM observation of a biofilm on a coupon surface was described by Wen et al., Inter. Biodeter. Biodegr., (2009), 63:1102-1106. […] Thus, an SEM image was taken after searching for a spot with the most sessile cells. The cells seen in the SEM images should not be used to count the sessile cells because of uneven distribution. Instead, the Most Probable Number (MPN) method was used to enumerate sessile cells. SEM images could be used as qualitative visual confirmation of biofilm removal.
(§2) Viable D. vulgaris cells can be seen as motile cells under a light microscope at 400×. Thus they can be counted using a hemocytometer. However, this method has a detection limit of 5×10^4 cells/ml minimum at 400× magnification. It is a standard practice to enumerate very low cell counts using the semi-quantitative most probable number (MPN) method with a liquid culture medium or a solid medium. The accuracy of MPN is typically 1 log in cell numbers. Thus, it takes at least a 2-log reduction to assure the efficacy of a biocide system. In this example, the sessile cells on a coupon were scraped and collected in a test tube by using the brush-like dipstick that was part of an SRB test kit (Sani-Check® Product #100 from Biosan Laboratories, Warren, Mich., USA). The dipstick was then soaked in 10 ml sterilized distilled water and vortexed for 30 s. Finally, the dipstick was inserted into the test kit's vial containing a solid SRB culture medium. The SRB sessile cell concentration was based on how long it took for the black color (FeS) to appear in the medium around the dipstick. The tests were repeated three separate times. Each time, two coupons were used for sessile SRB cell counting.

The subject of assay [3] is D. vulgaris (ATCC 7757) SRB biofilm. Description: Prevention of SRB biofilm establishment (Example 2): sessile cell count (MPN) and SEM. The note with it: 100 ppm, alone, 7 days; for Sessile SRB cells on coupon (SEM), biofilm prevention: full-strength medium. Format: cell-based, Desulfovibrio vulgaris. The protocol: D. vulgaris (ATCC 7757), a common SRB strain, was used in this example. Before inoculation, the culture media were autoclave sterilized and then sparged with filter-sterilized nitrogen for at least 45 minutes to remove dissolved oxygen. SRB growth was carried out in 125 ml anaerobic vials (Catalog No. 223748, Wheaton Industries Inc., Millville, N.J., USA) filled with 100 ml culture medium. In the test, 1 ml SRB seed culture was used to inoculate each anaerobic vial to achieve an SRB concentration of 10^6 cells/ml right after inoculation. The full-strength ATCC 1249 medium with 200 ppm Fe^2+ was used to grow SRB biofilm on coupon surfaces.
It was neutralized to pH 7.0 by adding a sodium hydroxide solution. Coin shaped C1018 carbon steel coupons with a top exposed surface area of 1.12 cm^2 were used as substratum for SRB growth. The side and bottom surfaces were coated with inert Teflon. The top surface was polished sequentially by 200, 400, and 600 grit abrasive papers. Nitrogen sparging was used to remove dissolved oxygen in all liquids and to provide an anaerobic environment in a glove box. 100 ppm L-cysteine (Fisher Scientific, Pittsburgh, Pa., USA) was added to the culture media as an oxygen scavenger to mitigate any possible oxygen leak.
One milliliter of SRB seed culture was added at the beginning of the tests and the vials were sealed and incubated at 37° C. without shaking. After 7 days, the coupons were taken out and examined for sessile SRB cells.
as §1, §2

For assay [4] the test system is unchanged. Description: Mitigation of MIC pitting and weight loss of C1018 carbon steel coupons (Example 1). Also noted: species or system Desulfovibrio vulgaris. The note with it: 50 ppm, alone; 7 days. The source says: The coupons for SEM used in above in “Prevention of Biofilm Establishment” were reused to observe the MIC pitting after their biofilms and Au coating were removed using the Clark's solution. Coupon weight loss data were obtained from another duplicate coupon in each vial. The coupon surface was cleaned to remove biofilms and mineral deposits using the Clark's solution before weighing.

In the case of `CC(C)C[C@@H](N)C(=O)O` [D-leucine], the Sessile cell count result in assay [1] (500 ppm, after 7 days, ATCC 1249 medium) is “≧10^5 cells/cm^2”.

In the case of `CSCC[C@@H](N)C(=O)O` [D-methionine], in assay [1] (500 ppm), the “Sessile SRB cells on coupon surface (SEM), biofilm prevention” value is listed as “had sessile SRB cells on their surfaces”.

Consider `N[C@H](Cc1c[nH]c2ccccc12)C(=O)O` [D-tryptophan], for which the “Sessile SRB cells on coupon surface (SEM), biofilm prevention” value in assay [1] (100 ppm) is reported as “ineffective”.

On to `N[C@H](Cc1ccc(O)cc1)C(=O)O` [D-tyrosine], for which, in assay [2] (100 ppm, 1 h), the “Sessile SRB cells on coupon (SEM), 1-h shock treatment” value was “left many sessile cells on the coupon surface”. Moreover, the “Sessile cell count for 3-h treatment” value in assay [2] (100 ppm) is given as “≧10^5 cells/cm^2”. Moreover, in assay [3], the “Reduction of SRB sessile cells versus untreated control” value worked out at 1 log and the “Sessile SRB cells on coupon (SEM), biofilm prevention” value is given as “completely ineffective”. Also, the “Sessile SRB cells on coupon surface (SEM), biofilm prevention” value in assay [1] (10 ppm) is given as “not effective in preventing SRB biofilm formation”.

For “Tetrakis hydroxymethyl phosphonium sulfate [THPS]”, the “Normalized coupon weight loss (average)” value in assay [4] came out at 0.65 mg/cm^2. Besides, in assay [2] (50 ppm, 1 h), the “Reduction of sessile SRB concentration versus control” value is on record as 2 log; the “Sessile SRB cells on coupon (SEM), 1-h shock treatment” value was “numerous sessile SRB cells remained”; the “Sessile cell count for 1-h treatment” value is on record as “≧10^4 cells/cm^2”. Further, in assay [2] (50 ppm), the “Sessile cell count for 3-h treatment” value is listed as “≧10^3 cells/cm^2”. Moreover, in assay [3], the “Kill of SRB sessile cells” value amounted to 99.999%; the “Reduction of SRB sessile cells versus untreated control” value stood at 5 log; the “Sessile SRB cells on coupon (SEM), biofilm prevention” value is given as “partially effective”. Moreover, the “Sessile SRB cells on coupon surface (SEM), biofilm prevention” value in assay [1] (100 ppm) is listed as “had sessile SRB cells on their surfaces”.

The record behind these values is patent publication US9034812B2, “Compositions and methods for treating biofilms” (Ohio University, priority 2011, dated 2015).
